In article PMC5388737, “Exploring the Role of CYP3A4 Mediated Drug Metabolism in the Pharmacological Modulation of Nitric Oxide Production” (Frontiers in Pharmacology, 2017):
Converted amounts (≈) assume the structure as drawn. Read-outs that look alike come from different tables or passages of the source.

Tests used:
[1] = Turbidimetric kinetic aqueous solubility (NIVA-CYPI-KS); assay type: physicochemical; details: potassium phosphate buffer, 37 °C, pH 7.4, aqueous buffer, kinetic from dmso stock, potassium phosphate buffer pH 7.4, 2 h, turbidimetry 620 nm
Procedure: (§1) Serial dilutions of test compounds in 100% DMSO were carried out on a Biomek FX workstation coupled with a stacker carrousel (Beckman Coulter Inc. Brea, California). […] Compounds for NO production assessment were also prepared from serial dilutions in 100% DMSO (20 μL) which were combined with water (80 μL).
(§2) Briefly, CYP3A4 inhibition studies were conducted using human recombinant c-DNA expressed CYP3A4 enzymes by quantification of non-fluorescent substrate, 7-benzyloxy-4-(trifluoromethyl) coumarin (BFC) transformation to a fluorescent product (7-HFC), which is mediated by CYP3A4. For aqueous solubility assessment, serial dilutions of test compounds (imidazole derivatives and macrolides) dissolved in DMSO/AcN [35:65] [v/v] (2 μL) were combined with a 180 μL potassium phosphate buffer (pH 7.4) using an Evolution P3 liquid handling station. Then the plates were incubated for 2 h at 37°C to allow slow compound precipitation. Thereafter, absorbance was measured at 620 nm by an EnVision multilabel plate reader. Absorbance signals were used to determine compound solubility limits. Pyrene was used as standard control for precipitation in turbidimetric kinetic solubility determination. […] Finally, reaction product (7-HFC) formation was quantify using florescence measurements. All compounds were tested in triplicate in two different days.

[2] = test system: NO production in LPS stimulated RAW 264.7 macrophages; experiment: NO production in LPS stimulated RAW 264.7 murine macrophages (Griess assay); assay type: cell-based, mouse; details: for IC50: Mus musculus, RAW264.7
Procedure: The mouse macrophage cells, RAW264.7 (ATCC® TIB-71™) were obtained from ATCC and cultured in Dulbecco's Modified Eagle Medium (DMEM), supplemented with 10% FBS and 2 mM l-glutamine, in a humidified 5% CO2 atmosphere at 37°C. All cell handling steps were carried out using the SelecT automated cell culture system. RAW264.7 cells were seeded into 96-well plates at a density of 20 × 10^3 cells per well and grown to approximately 50% of confluence (24 h). They were cultured for another 24 h with each of the test compounds described above (5 μL of stock serial dilutions in 20% DMSO were dispensed into 190 μL of fresh medium using Perkin Elmer Evolution P3, Waltham, MA,). Afterwards, these cells were stimulated with LPS (5 μL of 6 μg/mL were dispensed using a Thermo Scientific Multidrop Combi dispenser, MTX Lab Systems, Vienna, VA). Untreated (5 μL of 20% DMSO, compound vehicle) and unstimulated (5 μL of purified water, LPS vehicle) cells were used as negative controls (n = 4) while untreated but stimulated cells were used as positive controls (n = 4) in each assay plate.
Test compound activities were calculated automatically using the Genedata Screener software (Genedata AG, Basel, Switzerland), and the percentage inhibition of each commercial compound was determined by Equation (1), integrated in the Genedata Screener software. Percentage of control of production of nitric oxide was: (1) Percentage of control = (Abswell − Absneg/Abspos − Absneg) ∗ 100 where Abswell is the absorbance measured per specific well; and Abspos and Absneg are the average absorbance measured for the positive (LPS/solvent vehicle) and negative controls (-LPS/solvent vehicle, respectively). […] Dexamethasone was used as positive control standard. All compounds were tested in triplicate (n = 3) in two different days.

[3] = In vitro metabolic stability in human liver microsomes; assay type: in vitro ADME; details: HLM 1 mg/mL, 1 μM substrate, NADPH, read-out: Met. stability T1/2
Procedure: Protein concentration was 1 mg/mL and NADPH was present at 4 mM. Reaction was quenched using an equal volume of AcN and then diluted 1:1 with water prior to analysis by liquid chromatography coupled to high resolution mass spectrometry (LC-HRMS): Chromatography. The incubations were analyzed using an Agilent Series 1290 LC system (Agilent Technologies, Santa Clara, CA, USA). […] Solvent A contained water with 0.1% formic acid and solvent B contained AcN with 0.1% formic acid, and the flow rate was set at 400 μL/min. The gradient elution was performed as follows: 0-0.5 min 0% eluent B; 0.5-7 min 100% eluent B; 7-9 min 100% eluent B; 9-9.2 min 0% eluent B; and 9.2-10.5 min 0% eluent B. High resolution mass spectrometry: AB SCIEX TripleTOF 5600 quadrupole-time-of-flight mass spectrometer (Q-TOF-MS) in positive ESI mode (AB SCIEX, Concord, ON, Canada) was used with a generic method for data acquisition on all compounds and samples. The method consisted of a time of flight mass survey scan (TOF MS), followed by two information-dependent acquisitions (IDA) TOF MS/MS scans. […] An accumulation time of 100 ms was used for each scan. Mass defect triggered IDA was used for the MS/MS scans (collision energy of 35 eV with a spread of ±10 eV). External mass calibration was performed automatically using a calibrant delivery system. Data processing was performed using MultiQuant Software and MetabolitePilot Software (AB SCIEX, Concord, ON, Canada) to process the TOF MS data and generate all quantitative information. An extracted ion current (XIC) window of ±10 mDa was used for all compounds. Peak areas were used to plot the Ln % remaining relative to t = 0.

[4] = target: CYP3A4 (Homo sapiens, UniProt P08684); experiment: in vitro; details: recombinant enzyme, pH 7.4
Procedure: Control samples were prepared in the absence of test compounds by the addition of solvent alone.
Briefly, the observed inactivation rate constant at each macrolide concentration was calculated from the initial slopes of the remaining enzyme activity, plotted semi-logarithmically against the pre-incubation time. Non-linear regression analysis of the negative slopes against inhibitor concentration enables Kinact and KI to be calculated. […] All compounds were tested in triplicate in two different days for every methodology studied. […].

[5] = target: human recombinant c-DNA expressed CYP3A4 (Homo sapiens, UniProt P08684); experiment: CYP3A4 reversible inhibition (NIVA-CYPI-KS, BFC substrate)
Procedure: as §1, §2

[6] = RXT metabolite profile in HLM incubations (LC-HRMS); assay type: in vitro ADME, human; details: RXT incubation with HLM; peak area of [M+H]+ ion
Procedure: Test compounds (ERY, RXT, CLT, and AZT) were incubated in HLM at an initial substrate concentration of 1 μM in a 96-well format. Standard high-throughput incubation conditions were used with time points of 0, 15, 30, 45, 60, and 90 min. Protein concentration was 1 mg/mL and NADPH was present at 4 mM. Reaction was quenched using an equal volume of AcN and then diluted 1:1 with water prior to analysis by liquid chromatography coupled to high resolution mass spectrometry (LC-HRMS): Chromatography. The incubations were analyzed using an Agilent Series 1290 LC system (Agilent Technologies, Santa Clara, CA, USA). All analyses were performed using a Supelco Discovery HS C18 (2.1 × 50 mm) 3 μm column that was held at 30°C. Solvent A contained water with 0.1% formic acid and solvent B contained AcN with 0.1% formic acid, and the flow rate was set at 400 μL/min. The gradient elution was performed as follows: 0–0.5 min 0% eluent B; 0.5–7 min 100% eluent B; 7–9 min 100% eluent B; 9–9.2 min 0% eluent B; and 9.2–10.5 min 0% eluent B. High resolution mass spectrometry: AB SCIEX TripleTOF 5600 quadrupole-time-of-flight mass spectrometer (Q-TOF-MS) in positive ESI mode (AB SCIEX, Concord, ON, Canada) was used with a generic method for data acquisition on all compounds and samples. The method consisted of a time of flight mass survey scan (TOF MS), followed by two information-dependent acquisitions (IDA) TOF MS/MS scans. The mass range was m/z 100–1,000 for both MS and MS/MS. An accumulation time of 100 ms was used for each scan. Mass defect triggered IDA was used for the MS/MS scans (collision energy of 35 eV with a spread of ±10 eV). External mass calibration was performed automatically using a calibrant delivery system. Data processing was performed using MultiQuant Software and MetabolitePilot Software (AB SCIEX, Concord, ON, Canada) to process the TOF MS data and generate all quantitative information. An extracted ion current (XIC) window of ±10 mDa was used for all compounds. […]

[7] = test system: primary cultures of alveolar rat macrophages; design: method as in Tamaoki et al., 1999; Kohri et al., 2000; details: ref Tamaoki et al., 1999, Kohri et al., 2000; cited from earlier work
[8] = read-out: Solubility Range Lower bound
[9] = read-out: Solubility Range Upper bound
[10] = LPS stimulated RAW 264.7, 24 h, concentrations with viability <80% rejected, read-out: NO production IC50
[11] = inferred from relative composition of the RXT metabolite mixture, read-out: inferred IC50 for inactivation of NO production

Sequence of CYP3A4 (P08684 whole entry): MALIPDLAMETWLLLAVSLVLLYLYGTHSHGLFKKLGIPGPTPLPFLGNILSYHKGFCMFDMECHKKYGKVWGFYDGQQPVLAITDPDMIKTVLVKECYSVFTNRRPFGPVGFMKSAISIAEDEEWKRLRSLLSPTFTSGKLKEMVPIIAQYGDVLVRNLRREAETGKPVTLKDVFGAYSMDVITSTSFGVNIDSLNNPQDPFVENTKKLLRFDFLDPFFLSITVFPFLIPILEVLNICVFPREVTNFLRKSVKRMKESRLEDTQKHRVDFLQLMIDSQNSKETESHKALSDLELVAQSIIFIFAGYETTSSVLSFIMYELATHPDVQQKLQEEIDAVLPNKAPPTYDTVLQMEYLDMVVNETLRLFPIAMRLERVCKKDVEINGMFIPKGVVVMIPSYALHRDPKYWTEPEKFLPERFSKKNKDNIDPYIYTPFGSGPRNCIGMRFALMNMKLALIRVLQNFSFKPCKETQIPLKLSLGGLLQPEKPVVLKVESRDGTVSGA
Sequence of human recombinant c-DNA expressed CYP3A4 (P08684 whole entry): as above

| Compound | solubility at 2 h [1, 8] | solubility at 2 h [1, 9] | half-life at 1 μM [3] | Area (%) relative content of parent and metabolites [6] | IC50 [2, 10] | also measured |
| --- | --- | --- | --- | --- | --- | --- |
| CC[C@H]1OC(=O)[C@H](C)[C@@H](O[C@H]2C[C@@](C)(OC)[C@@H](O)[C@H](C)O2)[C@H](C)[C@@H](O[C@@H]2O[C@H](C)C[C@H](N(C)C)[C@H]2O)[C@](C)(O)C[C@@H](C)CN(C)[C@H](C)[C@@H](O)[C@]1(C)O [Azithromycin] | > 86 µM | > 86 µM | > 60 min | – | > 250 µM | NO production, percentage of control ([2]; 250 μM (highest noncytotoxic dose), LPS stimulated RAW 264.7): 53.82 % of control |
| Clc1ccccc1C(c1ccccc1)(c1ccccc1)n1ccnc1 [Clotrimazole, clotrimazole] | 2.59 µM (≈ 0.893 µg/mL) | 10.3 µM (≈ 3.57 µg/mL) | – | – | – | – |
| C[C@@H]1C[C@H]2[C@@H]3CCC4=CC(=O)C=C[C@]4(C)[C@@]3(F)[C@@H](O)C[C@]2(C)[C@@]1(O)C(=O)CO [Dexamethasone] | – | – | – | – | 0.00721 µM | – |
| CC[C@H]1OC(=O)[C@H](C)[C@@H](O[C@H]2C[C@@](C)(OC)[C@@H](O)[C@H](C)O2)[C@H](C)[C@@H](O[C@@H]2O[C@H](C)C[C@H](N(C)C)[C@H]2O)[C@](C)(O)C[C@@H](C)C(=O)[C@H](C)[C@@H](O)[C@]1(C)O [Erythromycin, erythromycin] | > 86 µM | > 86 µM | 21.7 min | – | > 250 µM | IC50 [5]: 3.21 µM |
| CC(=O)N1CCN(c2ccc(OCC3COC(Cn4ccnc4)(c4ccc(Cl)cc4Cl)O3)cc2)CC1 (stereo not drawn) [Ketoconazole, ketoconazole] | – | – | – | – | > 10 µM | – |
| CCC1OC(=O)C(C)C(OC2CC(C)(OC)C(O)C(C)O2)C(C)C(OC2OC(C)CC(N(C)C)C2O)C(C)(O)CC(C)C(=NO)C(C)C(O)C1(C)O (stereo not drawn) [M1, ERY oxime] | – | – | – | 20% | – | IC50 [2, 11]: 23.1 µg/mL |
| Clc1ccc(COC(Cn2ccnc2)c2ccc(Cl)cc2Cl)c(Cl)c1 (stereo not drawn) [Miconazole, miconazole] | 8.62 µM (≈ 3.59 µg/mL) | 34.5 µM (≈ 14.3 µg/mL) | – | – | – | – |

Second part, led by results:

| solubility at 2 h [1, 8] | solubility at 2 h [1, 9] | half-life at 1 μM [3] | Area (%) relative content of parent and metabolites [6] | Compound | IC50 [2, 10] | also measured |
| --- | --- | --- | --- | --- | --- | --- |
| > 86 µM | > 86 µM | 50.6 min | – | CC[C@H]1OC(=O)[C@H](C)[C@@H](O[C@H]2C[C@@](C)(OC)[C@@H](O)[C@H](C)O2)[C@H](C)[C@@H](O[C@@H]2O[C@H](C)C[C@H](N(C)C)[C@H]2O)[C@](C)(OC)C[C@@H](C)C(=O)[C@H](C)[C@@H](O)[C@]1(C)O [Claritromycin, clarithromycin] | > 62.5 µM | CYP3A4 TDI KI [4]: 2.68 µM; NO production, percentage of control ([2]; 62.5 μM (highest noncytotoxic dose), LPS stimulated RAW 264.7): 85.2% |
| – | – | – | 2% | CCC1OC(=O)C(C)C(OC2CC(C)(OC)C(O)C(C)O2)C(C)C(OC2OC(C)CC(NC)C2O)C(C)(O)CC(C)C(=NO)C(C)C(O)C1(C)O (stereo not drawn) [M5, Demethylated ERY oxime] | – | IC50 [2, 11]: 4.74 µg/mL |
| > 86 µM | > 86 µM | 38.1 min | 65% | CC[C@H]1OC(=O)[C@H](C)[C@@H](O[C@H]2C[C@@](C)(OC)[C@@H](O)[C@H](C)O2)[C@H](C)[C@@H](O[C@@H]2O[C@H](C)C[C@H](N(C)C)[C@H]2O)[C@](C)(O)C[C@@H](C)/C(=N\OCOCCOC)[C@H](C)[C@@H](O)[C@]1(C)O [Roxythromycin, (E)-ERY-9-[O-[(2-methoxyethoxy)methyl]oxime]] | > 250 µM | CYP3A4 TDI KI [4]: 0.29 µM; kinact [4]: 0.000715 s⁻¹; IC50 [5]: 6.41 µM; inactivation of NO production ([2]; from 0.488 to 250 μM, LPS stimulated RAW 264.7): no inactivation at all; IC50 in NO production [7]: 5 µg/mL (≈ 5.97 µM) |
